Data published in patent US4617269A, “Process for the preparation of fructosyl disaccharides” (priority 1983, dated 1986).
Where two headings read alike, the source gives them in different places.

Assays:
[1] = Sweetness relative to sucrose
[2] = tested on: Dedonder's levan sucrase from B.subtilis BS5 (a clone from B.subtilis var. nigra); conditions: cited from earlier work

OC[C@H]1O[C@H](O[C@]2(CO)O[C@H](CO)[C@@H](O)[C@@H]2O)[C@H](O)[C@@H](O)[C@H]1O [Galactosucrose, β-D-fructofuranosyl (2→1)-D-galactopyranoside]
sweetness ([1]; only a trace of sweetness): 10-15 % of sucrose

O[C@@H]1[C@@H](O)[C@@H](O[C@]2(CCl)O[C@H](CCl)[C@@H](O)[C@@H]2O)OC[C@@H]1Cl [Example 8]
sweetness, times as sweet as sucrose ([1]; in a 2% solution): 25 times as sweet as sucrose

OC[C@H]1O[C@@](CO)(O[C@H]2O[C@H](CO)[C@@H](O)[C@H](O)[C@H]2O)[C@@H](O)[C@@H]1O [sucrose, β-D-fructofuranosyl α-D-glucopyranoside]
Km ([2]; Dedonder (loc.cit.) BS5 strain enzyme, read-out: Km (sucrose), quoted): ~20 mM | Km ([2]; reported for Dedonder's levan sucrase, read-out: Km for sucrose): 20 mM

C[C@H]1O[C@H](O[C@]2(CCl)O[C@H](CCl)[C@@H](O)[C@@H]2O)[C@H](O)[C@@H](O)[C@H]1Cl [4,1',6'-trichloro-4,6,1',6'-tetradeoxygalactosucrose]
sweetness, times as sweet as sucrose ([1]; 8% solution): 400 times as sweet as sucrose
